Experimental data as given in US4379917A, “6"-(Substituted)-apramycin antibiotic derivatives and intermediates and starting materials therefor” (Eli Lilly and Company, priority 1981, dated 1983).
Converted amounts (≈) assume the structure as drawn. Like-named read-outs stand apart in the source and are kept apart here.

Tests used:
Type in all cases: cell-based
[1] = tested on: Pseudomonas aeruginosa X48; assay: MIC by standard agar dilution test; details: X48, read-out: Minimum Inhibitory Concentration
[2] = tested on: Pseudomonas aeruginosa X528; assay: MIC by standard agar dilution test; details: X528, Table 1, agar dilution, read-out: Minimum Inhibitory Concentration
[3] = tested on: Pseudomonas aeruginosa X239; assay: MIC by standard agar dilution test
[4] = tested on: Pseudomonas aeruginosa Ps9; assay: MIC by standard agar dilution test; details: PS9, Table 1, agar dilution, read-out: Minimum Inhibitory Concentration
[5] = tested on: Pseudomonas aeruginosa Ps15; assay: MIC by standard agar dilution test; details: PS15, read-out: Minimum Inhibitory Concentration
[6] = tested on: Pseudomonas aeruginosa Ps25; assay: MIC by standard agar dilution test; details: PS25, read-out: Minimum Inhibitory Concentration
[7] = tested on: Pseudomonas aeruginosa 4276; assay: MIC by standard agar dilution test; details: Pseudomonas aeruginosa, 4276, read-out: Minimum Inhibitory Concentration
[8] = tested on: Pseudomonas aeruginosa PI23; assay: MIC by standard agar dilution test; details: PI23, Table 1, agar dilution, read-out: Minimum Inhibitory Concentration
[9] = tested on: Pseudomonas aeruginosa SF-2; assay: MIC by standard agar dilution test; details: SF2, read-out: Minimum Inhibitory Concentration
Serratia marcescens SE2 = assay: MIC by standard agar dilution test; details: SE2, read-out: Minimum Inhibitory Concentration
Serratia marcescens X99 = assay: MIC by standard agar dilution test; details: X99, read-out: Minimum Inhibitory Concentration
Serratia marcescens SE3 = assay: MIC by standard agar dilution test
[10] = tested on: Enterobacter aerogenes EB6; assay: MIC by standard agar dilution test; details: Klebsiella aerogenes, EB6, read-out: Minimum Inhibitory Concentration
[11] = tested on: Enterobacter cloacae EN453; assay: MIC by standard agar dilution test; details: EN453, read-out: Minimum Inhibitory Concentration
[12] = tested on: Enterobacter cloacae EB24; assay: MIC by standard agar dilution test; details: EB24, read-out: Minimum Inhibitory Concentration
Proteus morganii PR1 = assay: MIC by standard agar dilution test; details: Morganella morganii, PR1, read-out: Minimum Inhibitory Concentration
Proteus morganii PR2 = assay: MIC by standard agar dilution test; details: Morganella morganii, PR2; Table 1; agar dilution; read-out: Minimum Inhibitory Concentration
Proteus inconstans PV25 = assay: MIC by standard agar dilution test; details: Providencia alcalifaciens, PV25, read-out: Minimum Inhibitory Concentration
[13] = tested on: Klebsiella pneumoniae KL2; assay: MIC by standard agar dilution test; details: KL2, read-out: Minimum Inhibitory Concentration
[14] = tested on: Enterobacter aerogenes EB17; assay: MIC by standard agar dilution test; details: Klebsiella aerogenes, EB17, read-out: Minimum Inhibitory Concentration
Proteus morganii PR15 = assay: MIC by standard agar dilution test; details: Morganella morganii, PR15; Table II; agar dilution; read-out: Minimum Inhibitory Concentration
[15] = tested on: Klebsiella pneumoniae KL14; assay: MIC by standard agar dilution test; details: KL14, read-out: Minimum Inhibitory Concentration
[16] = tested on: Staphylococcus aureus 3055; assay: MIC by standard agar dilution test; details: Staphylococcus aureus, 3055, read-out: Minimum Inhibitory Concentration
Erwinia amylovora = assay: MIC by standard agar dilution test; details: Table II, read-out: Minimum Inhibitory Concentration
Excerpt: (§1) The antibacterial activity of the antibiotic compounds of this invention is illustrated by the following in vitro and in vivo test data obtained with representative compounds. In Tables I and II the minimum inhibitory concentration (MIC) for representative compounds against a wide range of gram-positive and gram-negative bacteria is presented. The MIC values were obtained by the standard agar dilution test.

[17] = tested on: Staphylococcus aureus 3074; assay: MIC by standard agar dilution test; details: Table II, read-out: Minimum Inhibitory Concentration
Excerpt: as §1

[18] = tested on: Streptococcus faecalis X66; assay: MIC by standard agar dilution test; details: Enterococcus faecalis, X66; Table II; agar dilution; read-out: Minimum Inhibitory Concentration
Salmonella typhosa SA12 = assay: MIC by standard agar dilution test; details: Salmonella enterica, read-out: Minimum Inhibitory Concentration
Escherichia coli EC14 = assay: MIC by standard agar dilution test; details: EC14, read-out: Minimum Inhibitory Concentration
[19] = tested on: Citrobacter freundii CF17; assay: MIC by standard agar dilution test; details: CF17, read-out: Minimum Inhibitory Concentration
[20] = tested on: Bordetella bronchiseptica 16; assay: MIC by standard agar dilution test; details: Bordetella bronchiseptica, 16; Table II; agar dilution; read-out: Minimum Inhibitory Concentration
Salmonella typhimurium = assay: MIC by standard agar dilution test; details: Salmonella enterica, Table II, agar dilution, read-out: Minimum Inhibitory Concentration
[21] = tested on: Pseudomonas solanacearum X185; assay: microbe, parasite or virus in culture; details: Ralstonia solanacearum, X185, read-out: Minimum Inhibitory Concentration

Compound `CN[C@@H]1[C@@H](O[C@H]2O[C@H](CCl)[C@@H](N)[C@H](O)[C@H]2O)O[C@H]2C[C@@H](N)[C@@H](O[C@H]3[C@H](O)[C@@H](O)[C@H](N)C[C@@H]3N)O[C@@H]2[C@@H]1O` [Test Compound 3, 6"-Chloro-6"-Deoxyapramycin] has an MIC [1] of 16 µg/mL (≈ 28.7 µM), an MIC [2] of 32 µg/mL (≈ 57.3 µM) and an MIC ([3]; X239, Table 1, read-out: Minimum Inhibitory Concentration) of 8 µg/mL (≈ 14.3 µM). For the same compound, the MIC ([3]; X239, read-out: Minimum Inhibitory Concentration, Table II) was 2 µg/mL (≈ 3.58 µM), the MIC [4] was 32 µg/mL (≈ 57.3 µM) and the MIC [5] was 16 µg/mL (≈ 28.7 µM). The MIC [6] was 16 µg/mL (≈ 28.7 µM), the MIC [7] was 16 µg/mL (≈ 28.7 µM) and the MIC [8] was > 128 µg/mL. The MIC [9] was 16 µg/mL (≈ 28.7 µM), the MIC (Serratia marcescens SE2) was 4 µg/mL (≈ 7.17 µM) and the MIC (Serratia marcescens X99) was 4 µg/mL (≈ 7.17 µM). It also gave an MIC (Serratia marcescens SE3; SE3, read-out: Minimum Inhibitory Concentration, Table 1) of 4 µg/mL (≈ 7.17 µM), an MIC (Serratia marcescens SE3; SE3, read-out: Minimum Inhibitory Concentration, Table II) of 16 µg/mL (≈ 28.7 µM) and an MIC [10] of 4 µg/mL (≈ 7.17 µM). The MIC [11] was 4 µg/mL (≈ 7.17 µM), the MIC [12] was 4 µg/mL (≈ 7.17 µM) and the MIC (Proteus morganii PR1) was 4 µg/mL (≈ 7.17 µM). It also gave an MIC (Proteus morganii PR2) of 32 µg/mL (≈ 57.3 µM), an MIC (Proteus inconstans PV25) of 4 µg/mL (≈ 7.17 µM) and an MIC [13] of 4 µg/mL (≈ 7.17 µM). The MIC [14] was 16 µg/mL (≈ 28.7 µM), the MIC (Proteus morganii PR15) was 8 µg/mL (≈ 14.3 µM) and the MIC [15] was 2 µg/mL (≈ 3.58 µM). It also gave an MIC [16] of 1 µg/mL (≈ 1.79 µM), an MIC (Erwinia amylovora) of 1 µg/mL (≈ 1.79 µM) and an MIC [17] of 1 µg/mL (≈ 1.79 µM). The MIC [18] was 8 µg/mL (≈ 14.3 µM), the MIC (Salmonella typhosa SA12) was 2 µg/mL (≈ 3.58 µM) and the MIC (Escherichia coli EC14) was 16 µg/mL (≈ 28.7 µM). For the same compound, the MIC [19] was 4 µg/mL (≈ 7.17 µM), the MIC [20] was 8 µg/mL (≈ 14.3 µM) and the MIC (Salmonella typhimurium) was 8 µg/mL (≈ 14.3 µM). It also gave an MIC [21] of 2 µg/mL (≈ 3.58 µM).
